In one data set the target is Recombinant mouse CD38 (Mus musculus (Mouse), UniProt P56528). Briefly: Mouse CD38 hydrolase assay (fluorescence, ε-NAD substrate). It counts as biochemical. The note with it: recombinant mouse CD38 0.4 nM, 12 μM ε-NAD, 30 min preincubation at 25° C., pH 7.4. As for the experimental part: (§1) The ability of test compounds to inhibit mouse CD38 hydrolase activity was measured in a fluorescence-based assay using non-physiological NAD^+ substrate analogue 1,N^6-etheno NAD^+ (ε-NAD). Recombinant mouse CD38 (0.4 nM) was preincubated with test compounds in 384-well black microplates for 30 min at 25° C. in PBS (—Ca^2+/Mg^2+) containing 0.005% BSA (pH 7.4). CD38 hydrolase activity was initiated by addition of 12 μM ε-NAD, which yields the fluorescent product 1,N^6-etheno ADP-ribose. Formation of fluorescent product was followed using ClarioStar Plus (BMG) microplate reader by reading fluorescence (excitation λ=300 nm; emission λ=410 nm) at two time points, one immediately after substrate addition (t=0) and one at 6 min (t=6).
Sequence of Recombinant mouse CD38 (P56528 whole entry): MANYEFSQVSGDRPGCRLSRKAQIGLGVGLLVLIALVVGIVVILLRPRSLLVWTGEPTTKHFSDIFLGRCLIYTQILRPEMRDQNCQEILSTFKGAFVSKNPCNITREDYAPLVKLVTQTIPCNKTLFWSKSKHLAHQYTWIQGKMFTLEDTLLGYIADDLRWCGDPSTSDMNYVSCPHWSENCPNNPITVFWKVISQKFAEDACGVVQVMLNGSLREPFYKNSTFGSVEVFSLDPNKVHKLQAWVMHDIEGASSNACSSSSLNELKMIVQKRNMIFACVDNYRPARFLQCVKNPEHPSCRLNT
Data was analysed by subtracting the values detected at t=0 from t=6 to correct for variation in baseline fluorescence, and fluorescence values were converted to percent inhibition using the average of high signal (CD38 and ε-NAD) and low signal (CD38 and ε-NAD in the presence of a tool CD38 inhibitor) control wells. IC50 values were determined from a 10-point, half log concentration response curve with a four-parameter logistic equation.

A further data set has as its target Recombinant human CD38 (Homo sapiens (Human), UniProt P28907). Briefly: Human CD38 hydrolase assay (fluorescence, ε-NAD substrate). Type of data set: biochemical. To be noted: recombinant human CD38 0.8 nM, 4 μM ε-NAD, 30 min preincubation at 25° C., pH 7.4. As for the experimental part: as §1, with “inhibit human” for “inhibit mouse”, “Recombinant human” for “Recombinant mouse”, “CD38 (0.8” for “CD38 (0.4”, “of 4” for “of 12”, “at 10” for “at 6”, “min (t=10).” for “min (t=6).”
Data was analysed by subtracting the values detected at t=0 from t=10 to correct for variation in baseline fluorescence. Fluorescence values were converted to percent inhibition using the average of high signal (CD38 and ε-NAD) and low signal (CD38 and ε-NAD in the presence of a tool CD38 inhibitor) control wells. IC50 values were determined from a 10-point, half log concentration response curve with a four-parameter logistic equation.

Data set [1] in a line: PK brain permeability in C57BL/6 mice after single oral gavage. It counts as in vivo. The note with it: 2 hours post dose; for concentration at 2 h: po, 10 mg/kg. The method, then:
The distribution of compounds into the brain in vivo was determined in C57BL/6 mice following single oral (po) gavage administration.
Test compounds were formulated at 1 mg/mL in 0.5% HPMC E4 M, 0.2% Tween 80 in water to achieve solutions or homogenous suspensions suitable for po administration.
Formulations were administered to 3 male C57BL/6 mice at a volume of 10 mL/kg resulting in a dose level of 10 mg/kg. Blood samples were collected at 1 and 2 hours post dose into tubes containing K2EDTA as anticoagulant, processed to plasma and stored at −60° C. or lower until LC-MS/MS analysis. Brains were harvested 2 hours post dose, rinsed with saline, dried, weighed and homogenised under ice cold conditions. Brain homogenates were stored at −60° C. or lower until LC-MS/MS analysis.
Dose formulation concentrations were verified using a LC-UV or LC-MS/MS method. Test compound concentrations in plasma and brain homogenate were quantitatively determined using LC-MS/MS methods developed in individual matrices against calibration curves with QC samples included and acceptance criteria as per CRO SOPs. Concentrations in brain homogenate were corrected for the dilution factor used to prepare the homogenate to give concentrations in whole brain tissue.
Plasma and brain concentration versus time data were reported and plotted in excel. The brain to plasma ratio at 2 hours post dose was calculated for each animal using the following equation:
Brain:plasma=brain concentration (ng/g) at 2 h/plasma concentration (ng/mL) at 2 h
As only unbound test compound is available to exert an effect on the target, unbound plasma (Cp,u) and unbound brain (Cb,u) concentrations were calculated by correcting the total concentrations for the unbound fraction in plasma (fu,p) or brain (fu,b) determined from in vitro plasma protein or brain tissue binding assays using the following equations: […]
The unbound partitioning coefficient (Kpu,u) was then calculated based on the ratio of Cb,u to Cp,u using the following equation: […]
In these studies, mice were orally administrated a 10 mg/kg dose and sacrificed 2 hours post dose and tissue samples (brain homogenate and plasma) were analyzed subsequently as described above.

Counter-ions that a name gives are not always drawn. Like-named read-outs stand apart in the source and are kept apart here.

Sequence of Recombinant human CD38 (P28907 whole entry): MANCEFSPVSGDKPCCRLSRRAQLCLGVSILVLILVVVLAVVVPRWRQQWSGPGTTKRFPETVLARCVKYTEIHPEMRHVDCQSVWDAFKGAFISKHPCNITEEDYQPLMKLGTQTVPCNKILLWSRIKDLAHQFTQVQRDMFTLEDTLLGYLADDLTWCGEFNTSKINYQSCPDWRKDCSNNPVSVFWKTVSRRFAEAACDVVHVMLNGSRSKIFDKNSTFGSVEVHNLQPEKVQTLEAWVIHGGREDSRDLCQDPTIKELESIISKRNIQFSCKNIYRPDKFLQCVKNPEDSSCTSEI

Broadly, the IC50 is the concentration that gives 50% inhibition. `Cc1cc(C(=O)N[C@H]2CC[C@H](NCC(F)(F)F)CC2)nc(-c2cncn2C)n1` [Example 4, 6-methyl-2-(1-methyl-1H-imidazol-5-yl)-N-((1r,4r)-4-((2,2,2-trifluoroethyl)amino)cyclohexyl)pyrimidine-4-carboxamide]: the IC50 at Recombinant mouse CD38 was no more than 40 nM.

Consider `CCc1cc(C(=O)N[C@H]2CC[C@H](NCC(F)(F)F)CC2)nc(-n2ccnc2)n1` [Example 6, 6-ethyl-2-(1H-imidazol-1-yl)-N-((1r,4r)-4-((2,2,2-trifluoroethyl)amino)cyclohexyl)pyrimidine-4-carboxamide], for which the IC50 at Recombinant human CD38 is no more than 100 nM; at Recombinant mouse CD38, no more than 40 nM.

On to `Cc1cc(C(=O)N[C@H]2CC[C@H](N3CC[C@@H](F)C3)CC2)nc(-n2ccnc2)n1` [Example 13, N-((1r,4r)-4-((R)-3-fluoropyrrolidin-1-yl)cyclohexyl)-2-(1H-imidazol-1-yl)-6-methyl-pyrimidine-4-carboxamide], for which the IC50 was no more than 100 nM on Recombinant human CD38 and no more than 40 nM at Recombinant mouse CD38.

For `Cc1cc(C(=O)N[C@H]2CC[C@@H](N3CCC(F)(F)C3)CC2)nc(-n2ccnc2)n1` [Example 11, N-((1s,4s)-4-(3,3-difluoropyrrolidin-1-yl)cyclohexyl)-2-(1H-imidazol-1-yl)-6-methyl-pyrimidine-4-carboxamide], the IC50 on Recombinant human CD38 was no more than 10000 nM.

For the compound `Cc1cc(C(=O)N[C@H]2CC[C@H](CNCC(F)(F)F)CC2)nc(-n2ccnc2)n1` [Example 25, 2-(1H-imidazol-1-yl)-6-methyl-N-((1r,4r)-4-(((2,2,2-trifluoroethyl)amino)methyl)cyclohexyl)pyrimidine-4-carboxamide], the IC50 on Recombinant human CD38 and on Recombinant mouse CD38 was no more than 40 nM in each case.

Take `Cc1cc(C(=O)N[C@H]2CC[C@H](N[C@@H](C)C(F)(F)F)CC2)nc(-n2ccnc2)n1` [Example 22, 2-(1H-imidazol-1-yl)-6-methyl-N-((1S,4r)-4-(((S)-1,1,1-trifluoropropan-2-yl)amino)cyclohexyl)pyrimidine-4-carboxamide]: the half-inhibitory concentration (IC50) at Recombinant human CD38 and at Recombinant mouse CD38 was no more than 40 nM in each case.

As to `Cc1cc(C(=O)N[C@H]2CC[C@H](NCC(F)F)CC2)nc(-c2cn[nH]c2)n1` [Example 15, N-((1r,4r)-4-((2,2-difluoroethyl)amino)cyclohexyl)-6-methyl-2-(1H-pyrazol-4-yl)pyrimidine-4-carboxamide], the values for the IC50 at Recombinant human CD38 and at Recombinant mouse CD38 were no more than 10000 nM and no more than 1000 nM, respectively.

`CCN[C@H]1CC[C@H](NC(=O)c2cc(C)nc(-n3ccnc3)n2)CC1` [Example 19, N-((1r,4r)-4-(ethylamino)cyclohexyl)-2-(1H-imidazol-1-yl)-6-methyl-pyrimidine-4-carboxamide Formate]: the IC50 was no more than 100 nM at Recombinant human CD38 and no more than 40 nM at Recombinant mouse CD38.

`Cc1cc(C(=O)N[C@H]2CC[C@H](NCC(F)(F)F)CC2)nc(-c2cn[nH]c2)n1` [Example 14, 6-methyl-2-(1H-pyrazol-4-yl)-N-((1r,4r)-4-((2,2,2-trifluoroethyl)amino)cyclohexyl)pyrimidine-4-carboxamide]: on Recombinant mouse CD38, the half-maximal inhibitory concentration (IC50) was no more than 1000 nM.

With `O=C(N[C@H]1CC[C@H](NCC(F)F)CC1)c1cc(C2CC2)cc(-n2ccnc2)n1` [Example 16, 4-cyclopropyl-N-((1r,4r)-4-((2,2-difluoroethyl)amino)cyclohexyl)-6-(1H-imidazol-1-yl)picolinamide], the values for the IC50 on Recombinant human CD38 and at Recombinant mouse CD38 were no more than 1000 nM and no more than 40 nM, respectively.

For `O=C(N[C@H]1CC[C@H](NCC(F)(F)F)CC1)c1cc(C2CC2)cc(-n2ccnc2)n1` [Example 20, 4-cyclopropyl-6-(1H-imidazol-1-yl)-N-((1r,4r)-4-((2,2,2-trifluoroethyl)amino)cyclohexyl)picolinamide], the IC50 was no more than 100 nM on Recombinant human CD38 and no more than 40 nM at Recombinant mouse CD38.

In the case of `Cc1cc(C(=O)N[C@H]2CC[C@H](NCC(F)F)CC2)nc(-c2cncs2)n1` [Example 8, N-((1r,4r)-4-((2,2-difluoroethyl)amino)cyclohexyl)-6-methyl-2-(thiazol-5-yl)pyrimidine-4-carboxamide], the IC50 at Recombinant human CD38 is no more than 1000 nM.

On to `Cc1cc(C(=O)N[C@H]2CC[C@H](N[C@H](C)C(F)(F)F)CC2)nc(-n2ccnc2)n1` [Example 23, 2-(1H-imidazol-1-yl)-6-methyl-N-((1R,4r)-4-(((R)-1,1,1-trifluoropropan-2-yl)amino)cyclohexyl)pyrimidine-4-carboxamide], for which the half-inhibitory concentration (IC50) at Recombinant human CD38 and on Recombinant mouse CD38 was no more than 40 nM throughout.

For the compound `Cc1cc(C(=O)N[C@H]2CC[C@H](C(=O)NCC(F)(F)F)CC2)nc(-n2ccnc2)n1` [Example 26, 2-(1H-imidazol-1-yl)-6-methyl-N-((1r,4r)-4-((2,2,2-trifluoroethyl)carbamoyl)cyclohexyl)pyrimidine-4-carboxamide], the IC50 at Recombinant human CD38 and at Recombinant mouse CD38 was no more than 40 nM throughout.

For `Cc1cc(C(=O)N[C@H]2CC[C@H](N3CC[C@H](F)C3)CC2)nc(-n2ccnc2)n1` [Example 12, N-((1s,4r)-4-((S)-3-fluoropyrrolidin-1-yl)cyclohexyl)-2-(1H-imidazol-1-yl)-6-methyl-pyrimidine-4-carboxamide], the IC50 was no more than 100 nM on Recombinant human CD38 and no more than 40 nM on Recombinant mouse CD38.

Regarding `Cc1cc(C(=O)N[C@H]2CC[C@H](N)CC2)nc(-n2ccnc2)n1` [Example 27, N-((1r,4r)-4-aminocyclohexyl)-2-(1H-imidazol-1-yl)-6-methyl-pyrimidine-4-carboxamide Formate], the results for the IC50 at Recombinant human CD38 and on Recombinant mouse CD38 were no more than 1000 nM and no more than 40 nM, respectively.

On to `O=C(N[C@H]1CC[C@H](NCC(F)(F)F)CC1)c1nc(-n2ccnc2)nc2cc[nH]c12` [Example 29, 2-(1H-imidazol-1-yl)-N-((1r,4r)-4-((2,2,2-trifluoroethyl)amino)cyclohexyl)-5H-pyrrolo[3,2-d]pyrimidine-4-carboxamide, reference compound], for which the concentration at 2 h came out at 1770 nM in data set [1] (male, C57BL/6, mouse, brain, read-out: total brain conc.); 224 nM in data set [1] (male, C57BL/6, mouse, brain, total corrected for unbound fraction in brain, read-out: free brain conc.); 11100 nM in data set [1] (male, C57BL/6, mouse, plasma, read-out: total plasma conc.); 1260 nM in data set [1] (male, C57BL/6, mouse, plasma, total corrected for unbound fraction in plasma, read-out: free plasma conc.). In addition, the Kpu,u (unbound brain/plasma partition coefficient) at 2 h in data set [1] (male, C57BL/6, mouse, brain/plasma, oral 10 mg/kg, read-out: Kpu,u (unbound partitioning coefficient, Cb,u/Cp,u)) stood at 0.18. Further, the “brain exposure (in words)” value in data set [1] (oral 10 mg/kg, comment on Table 3, with lower Kpu,u values) is “much reduced brain exposure”.

On to `Cc1cc(C(=O)N[C@H]2CC[C@H](N(C)CC(F)(F)F)CC2)nc(-n2ccnc2)n1` [Example 7, 2-(1H-imidazol-1-yl)-6-methyl-N-((1r,4r)-4-(methyl(2,2,2-trifluoroethyl)amino)cyclohexyl)pyrimidine-4-carboxamide], for which the IC50 at Recombinant human CD38 is no more than 100 nM.

Source of the values: patent US20250019369A1, “N-(4-aminocyclohexyl)pyrimidine-4-carboxamide derivatives as CD38 inhibitors” (Cerevance, Inc., priority 2021, published 2025).
